Series [1] is described as follows: appearance of SH045 in urine after i.v. administration. It is filed as in vivo, mice. The settings on record: 20 mg/kg BW i.v. On the procedure:
Mouse renal elimination of SH045 was exploratorily monitored up to their first spontaneous micturition after i.v. administration (20 mg/kg BW). Samples of released urine were assigned to micturition periods of 10–30, 60–80, or 100–120 min following application. Mean urine concentrations of unmetabolized SH045 of 748 ± 31 (n = 3), 1056 ± 104 (n = 3), and 162 ± 17 nM (n = 6), respectively, were recorded.
Via heparin-coated catheters a maximum of 50 µL blood was collected from the tail vein at 0.25, 0.5, 1, 2, 3, 4, 6, 8, or 24 h after administration and immediately centrifuged at 4000× g at 4 °C for 10 min. For repeated administration 20 mg/kg BW SH045 were administered at 8:00 a.m. on five consecutive days, once a day. Blood was taken 1 h and 24 h after drug administration. Tissue samples were harvested from isoflurane-euthanized animals at indicated time points. Mice were transcardially perfused with PBS and dissected tissues were washed to remove remaining blood. Plasma and tissue samples were stored at −80 °C until analysis. Urine was collected by bladder puncture at indicated time points.
For tissue analysis, homogenates (10% in phosphate-buffered saline, PBS) were prepared. Homogenate, plasma, and urine were mixed with IS and extracted with ice-cold ACN, centrifuged, filtered and stored in the autosampler at 6 °C until analysis in duplicates by LC-MS/MS (details in Supplementary Materials SM4).

A short description of series [2]: time-dependent metabolization (stability) in HLM and IVIVE of hepatic clearance. It is filed as in vitro ADME, human. An excerpt: In the widely used concept of the “well-stirred” model, liver represents a single uniform compartment. It is further assumed that the concentration of unbound SH045 leaving the liver is in equilibrium with its unbound concentration in hepatocytes (detailed calculation in Supplementary Materials SM8, summarized values in SR4). Briefly, microsomal intrinsic clearance was converted to hepatic clearance: CLhep = Q × fu × CLint/Q + (fu × CLint), where fu is the unbound fraction of SH045 in blood and Q is the hepatic blood flow in mice.
For this purpose, remaining concentrations of SH045 in microsomes were determined to calculate the intrinsic microsomal clearance CLint,micr, the intrinsic clearance CLint, equal to the maximum enzyme activity of liver and for in vitro-in vivo exploration of hepatic clearance CLhep in mouse and human using the well-stirred model. The algorithm for these calculations is given in detail in the Supplementary Materials SM8. […]
All microsome incubations were stopped with 1 mL ice -cold ACN containing 5 µg/mL IS, vortexed for 1 min and cooled at -20 °C for 10 min. […]
2 µL SH045 (final concentration 0.5 – 100 µM, in triplicate), 12.5 µL HLM or MLM (finally 0.5 mg/mL protein) and 460.5 µL DPBS were vortexed and preincubated 37 °C for 5 min. The reaction was initiated by addition of 25 µL analogously pre-incubated β-NADPH (finally: 1 mM). […]
Testosterone (10 µM in ACN/DPBS 2/3, v/v) instead of SH045 was used as positive control and analyzed by an appropriate HPLC method with UV detection.
Negative controls contained either no NADPH, no MLM or HLM or none of them. […]
Mean maximum rate vmax and Michaelis-Menten constant Km were calculated using Lineweaver-Burk transformation. From Km an appropriate drug concentration of 2 µM was derived as prerequisite for experimental in vitro determination of t1/2 required for further exploration of clearance.
For this purpose, microsomes were incubated as described above with 2 µM SH045 for indicated time intervals up to 30 min. The remaining concentrations of SH045 were determined to calculate the intrinsic microsomal clearance CLint,micr the intrinsic clearance CLint, equal to the maximum enzyme activity of liver and for in vitro-in vivo exploration of hepatic clearance CLhep in mouse and human using the “well-stirred” model [6].
SM7 Identification of metabolism pathways and metabolites of SH045 in MLM and HLM To determine possible metabolism pathways of SH045 in MLM and HLM, an in vitro inhibition approach was performed with CYP-isoform specific inhibitors (final concentration): ciprofloxacin (CYP1A2; 150 µM), pilocarpine (CYP2A6; 50 µM), ticlopidine (CYP2B6; 5 µM), quercetin (CYP2C8; 2 µM), sulfaphenazole (CYP2C9; 10 µM), fluvoxamine (CYP2C19; 10 µM), quinidine (CYP2D6; 10 µM), 4-methyl pyrazole (CYP2E1; 100 µM) and ketoconazole (CYP3A4; 1 µM) [7, 8]. The inhibitors were dissolved in DPBS and appropriate methanol, the organic solvents not […]
SH045 (2 µM) was pre-incubated with MLM or HLM (0.5 mg/mL) and the specific inhibitor for 5 min at 37 °C in DPBS.
Ticlopidine, a time-dependent inhibitor was pre-incubated for 15 min [9]. Incubations were performed in triplicate with NADPH (1 mM) in a final volume of 500 µL for 2 min and 10 min with pre-incubated MLM and HLM, respectively, terminated with 1 mL ice-cold ACN and processed as described above for LC-MS/MS. A sample without any inhibitor served as a positive control. […]

Series [3] in a line: tissue homogenate binding by ultrafiltration. It is filed as in vitro ADME, mice. The settings on record: mean ± RSD.

Values joined by “and” are separate entries in the source; they are usually repeats but may differ in a detail not shown here. Equal entries are not always repeated.

With `C=C[C@@](C)(O)CC[C@H]1C(=C)C[C@H](OC(=O)NC)[C@H]2C(C)(C)CCC[C@]12C` [SH045, (1S,4S,4aR,8aS)-4-((S)-3-Hydroxy-3-methylpent-4-en-1-yl)-4a,8,8-trimethyl-3-methylenedecahydronaphthalen-1-yl methylcarbamate], the “urine concentration after 2 h relative to IC50 reported in vitro” value in series [1] is given as “about 30 fold”. Further, the “mean urine concentration of unmetabolized SH045” value was 748 ± 31 nM in series [1] (micturition period 10–30 min); 1056 ± 104 nM in series [1] (micturition period 60–80 min); 162 ± 17 nM and 160 nM in series [1] (micturition period 100–120 min). Besides, the CLint scaled at 2 µM in series [2] (human, liver microsomes, scaled from CLint,micr) came out at 334 mL/min/kg. The CLhep in series [2] (human, predicted by well-stirred model, Q 21 mL/min/kg) is listed as 0.96 mL/min/kg. The compound also had a CLint in series [2] (human, scaled from CLint,micr) of 334.6 mL/min/kg. In addition, in series [2] (pH 7.4, human liver microsomes 0.5 mg/mL, 2 µM SH045, NADPH), the half-life at 2 µM was determined as 4.85 min. Also, the microsomal CLint at 2 µM in series [2] (pH 7.4, human liver microsomes, read-out: CLint, micr) was 286 µL/min/mg. The Tissue binding was 97.6 ± 0.9% in series [3] (kidney homogenate 1:10, SH045 1 µg/mL, 30 min); 97.8 ± 0.4% in series [3] (kidney homogenate 1:10, SH045 1 µg/mL, 60 min); 98.3 ± 0.2% in series [3] (kidney homogenate 1:10, SH045 1 µg/mL, 120 min); 98.3 ± 0.1% in series [3] (kidney homogenate 1:10, SH045 1 µg/mL, 240 min); 99.4 ± 0.1% in series [3] (liver homogenate 1:10, SH045 2 µg/mL, 30 min); 97.1 ± 1.0% in series [3] (liver homogenate 1:10, SH045 2 µg/mL, 60 min). Besides, the Tissue binding turned out to be 99.0 ± 0.1% in series [3] (liver homogenate 1:10, SH045 2 µg/mL, 120 min); 97.8 ± 0.9% in series [3] (liver homogenate 1:10, SH045 2 µg/mL, 240 min); 93.5 ± 1.2% in series [3] (lung homogenate 1:10, SH045 50 µg/mL, 30 min); 94.9 ± 0.1% in series [3] (lung homogenate 1:10, SH045 50 µg/mL, 60 min); 97.8 ± 0.5% in series [3] (lung homogenate 1:10, SH045 50 µg/mL, 120 min); 97.4 ± 0.8% in series [3] (lung homogenate 1:10, SH045 50 µg/mL, 240 min).

What is called CLint scaled is the capacity of the preparation to metabolise the compound, expressed as a volume cleared per time. A lower CLint scaled goes with slow turnover. A word on the half-life: it is the time needed for the level to fall by half in the phase considered.

(Values after article PMC8998618, “A Pharmacokinetic and Metabolism Study of the TRPC6 Inhibitor SH045 in Mice by LC-MS/MS” (International Journal of Molecular Sciences, 2022).)
